Experimental data reported in US20180360721A1, “PEPTIDE FOR STIMULATING MELANOGENESIS” (priority 2017, published 2018).
Where a SMILES comes first, the peptide text is derived from it.

Test system: B16F10 cells
Test: MTT assay of cell viability
Format: cell-based, mouse
Conditions: different concentrations, 24, 48 or 72 hours
Protocol: B16F10 is a melanoma cell line isolated from mouse skin (American Type Culture Collection, USA) and was cultured in phenol red-free Dulbecco's Modified Eagle Medium (DMEM) containing 10% (v/v) FBS and penicillin/streptomycin (100 IU/[…]) in 5% CO2 at 37° C.
The cells (2×10^3) in 100 μl complete DMEM were seeded in 96-well plates and treated with the peptide of SEQ ID NO: 1 at different concentrations. The cells treated with ddH2O was used as controls. Ten microliters of 5 mg/ml 3-(4,5-dimethyl-2-thiazolyl)-2,5-diphenyl-2H-tetrazolium bromide solution (MTT; Sigma) was added to each well and incubated at 37° C. for 3 hours. After that, 100 μl 10% SDS in 0.01N HCl was added to dissolve the MTT formazan crystals. The resultant optical density was measured by spectrophotometry at dual wavelengths, 550 and 630 nm.

In the case of C[C@H](NC(=O)[C@H](CO)NC(=O)[C@@H](N)CC(N)=O)C(=O)N[C@H](C(=O)N[C@@H](CCC(=O)O)C(=O)N[C@@H](CCCNC(=N)N)C(=O)N[C@@H](CCC(=O)O)C(=O)O)[C@@H](C)O [peptide of SEQ ID NO: 1, AsnSerAlaThrGluArgGlu] (H-NSATERE-OH), the “cell viability (MTT)” value is reported as “did not significantly affect the viability” and the “cell viability (MTT)” value (listed as peptide having the amino acid sequence of SEQ ID NO: 1) is reported as “did not significantly affect viability”.
